Molecular target: P. falciparum apicoplast DNA polymerase (Pf-apPOL) (Plasmodium falciparum, UniProt Q8ILY1)
Assay: Fluorescence-based high-throughput DNA polymerase assay (molecular beacon), primary screen and dose-response
Assay type: biochemical
Details: for DNA Pol: 90 min, 10 µM; for % inhibition apPOL 180' 2.5 / % inhibition apPOL 180' 5 / % inhibition apPOL 180' 10 / % inhibition apPOL 180' 20 / % inhibition apPOL 180' 40 / % inhibition apPOL 180' 80: read at 180'
How it was run: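 Single-point screening used 10 µM compound with 20 nM polymerase, 20 nM hairpin substrate and 6 µM dNTPs for 90 min at 25 °C. Confirmatory titrations (2.5–80 µM) followed fluorescence at three times, and IC50 was derived from a fit including a cooperativity term n.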

Chain of P. falciparum apicoplast DNA polymerase (Pf-apPOL) (Q8ILY1 entry or part of it): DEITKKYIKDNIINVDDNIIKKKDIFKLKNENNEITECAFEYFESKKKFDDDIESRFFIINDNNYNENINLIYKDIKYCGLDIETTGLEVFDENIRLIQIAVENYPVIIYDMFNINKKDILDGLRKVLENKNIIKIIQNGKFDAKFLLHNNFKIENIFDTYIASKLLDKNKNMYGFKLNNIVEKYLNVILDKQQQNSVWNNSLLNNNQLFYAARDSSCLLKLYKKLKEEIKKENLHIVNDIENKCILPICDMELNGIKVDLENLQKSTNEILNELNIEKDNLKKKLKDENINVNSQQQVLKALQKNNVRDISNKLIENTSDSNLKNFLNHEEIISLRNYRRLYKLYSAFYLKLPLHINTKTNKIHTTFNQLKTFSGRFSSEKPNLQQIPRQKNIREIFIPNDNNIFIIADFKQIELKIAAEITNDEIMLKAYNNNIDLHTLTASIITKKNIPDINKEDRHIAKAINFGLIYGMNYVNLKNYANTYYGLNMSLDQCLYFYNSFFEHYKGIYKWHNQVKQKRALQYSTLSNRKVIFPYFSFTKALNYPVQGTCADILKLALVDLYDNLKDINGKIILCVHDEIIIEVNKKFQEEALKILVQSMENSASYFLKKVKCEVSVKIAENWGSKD

Nc1cc(Oc2ccc(O)c(N)c2)ccc1O [KU0034728]
DNA Pol (186 hits, DNA Pol (screen value), unit not given): 65
DNA Pol ('DNA Pol' (screen value), unit not given): 65
% inhibition Apo pol 10' 2.5 (DRC-1, read at 10', concentration 2.5): 19.846%
% inhibition Apo pol 10' 5 (DRC-1, read at 10', concentration 5): 31.2811%
% inhibition Apo pol 10' 10 (DRC-1, read at 10', concentration 10): 55.4709%
% inhibition Apo pol 10' 20 (DRC-1, read at 10', concentration 20): 70.5604%
% inhibition Apo pol 10' 40 (DRC-1, read at 10', concentration 40): 80.3003%
% inhibition Apo pol 10' 80 (DRC-1, read at 10', concentration 80): 87.2374%
% inhibition Apol 90' 2.5 (DRC-1, read at 90', concentration 2.5): 8.186%
% inhibition Apol 90' 5 (DRC-1, read at 90', concentration 5): 16.785%
% inhibition Apol 90' 10 (DRC-1, read at 90', concentration 10): 34.847%
% inhibition Apol 90' 20 (DRC-1, read at 90', concentration 20): 48.9946%
% inhibition Apol 90' 40 (DRC-1, read at 90', concentration 40): 59.758%
% inhibition Apol 90' 80 (DRC-1, read at 90', concentration 80): 68.9049%
% inhibition apPOL 180' 2.5 (DRC-1, concentration 2.5): 2.338%
% inhibition apPOL 180' 5 (DRC-1, concentration 5): 7.101%
% inhibition apPOL 180' 10 (DRC-1, concentration 10): 22.2951%
% inhibition apPOL 180' 20 (DRC-1, concentration 20): 34.6321%
% inhibition apPOL 180' 40 (DRC-1, concentration 40): 46.6312%
% inhibition apPOL 180' 80 (DRC-1, concentration 80): 55.3391%
% inhibition Apo pol 5' (DRC-2, concentration 5): 43%
% inhibition Apol 40' (DRC-2, concentration 20): 65%
% inhibition Apol 40' (DRC-2, concentration 40): 74%
% inhibition ApPOL 90' (DRC-2, concentration 2.5): 43%
% inhibition ApPOL 90' (DRC-2, concentration 20): 65%
% inhibition apPOL 180' (DRC-2, concentration 10): 43%
% inhibition apPOL 180' (DRC-2, concentration 40): 74%
% inhibition Apo pol 5' 2.5 (DRC-2, read at 5', concentration 2.5): 42%
% inhibition Apo pol 5' 5 (DRC-2, read at 5', concentration 5): 43%
% inhibition Apo pol 5' 10 (DRC-2, read at 5', concentration 10): 50%
% inhibition Apo pol 5' 20 (DRC-2, read at 5', concentration 20): 52%
% inhibition Apo pol 5' 40 (DRC-2, read at 5', concentration 40): 56%
% inhibition Apo pol 5' 80 (DRC-2, read at 5', concentration 80): 30%
% inhibition Apol 40' 2.5 (DRC-2, read at 40', concentration 2.5): 47%
% inhibition Apol 40' 5 (DRC-2, read at 40', concentration 5): 44%
% inhibition Apol 40' 10 (DRC-2, read at 40', concentration 10): 57%
% inhibition Apol 40' 20 (DRC-2, read at 40', concentration 20): 65%
% inhibition Apol 40' 40 (DRC-2, read at 40', concentration 40): 74%
% inhibition Apol 40' 80 (DRC-2, read at 40', concentration 80): 64%
% inhibition ApPOL 90' 2.5 (DRC-2, read at 90', concentration 2.5): 43%
% inhibition ApPOL 90' 5 (DRC-2, read at 90', concentration 5): 40%
% inhibition ApPOL 90' 10 (DRC-2, read at 90', concentration 10): 55%
% inhibition ApPOL 90' 20 (DRC-2, read at 90', concentration 20): 65%
% inhibition ApPOL 90' 40 (DRC-2, read at 90', concentration 40): 76%
% inhibition ApPOL 90' 80 (DRC-2, read at 90', concentration 80): 71%
% inhibition apPOL 180' 2.5 (DRC-2, concentration 2.5): 31%
% inhibition apPOL 180' 5 (DRC-2, concentration 5): 26%
% inhibition apPOL 180' 10 (DRC-2, concentration 10): 43%
% inhibition apPOL 180' 20 (DRC-2, concentration 20): 59%
% inhibition apPOL 180' 40 (DRC-2, concentration 40): 74%
% inhibition apPOL 180' 80 (DRC-2, concentration 80): 75%

O=C(Nc1ccc2c(c1)Cc1cc(NC(=O)c3ccco3)ccc1-2)c1ccco1 [KU0038977]
DNA Pol ("DNA Pol" of the 186 hits list (screen value)): 27
% inhibition Apo pol 10' (DRC-1, concentration 2.5): -0.5837%
% inhibition Apo pol 10' (DRC-1, concentration 5): 5.785%
% inhibition Apo pol 10' (DRC-1, concentration 10): 28.4085%
% inhibition Apo pol 10' (DRC-1, concentration 20): 37.8617%
% inhibition Apo pol 10' (DRC-1, concentration 40): 75.7214%
% inhibition Apo pol 10' (DRC-1, concentration 80): 91.1334%
% inhibition Apol 90' (DRC-1, concentration 2.5): -0.5506%
% inhibition Apol 90' (DRC-1, concentration 5): 1.199%
% inhibition Apol 90' (DRC-1, concentration 10): 17.4686%
% inhibition Apol 90' (DRC-1, concentration 20): 25.9%
% inhibition Apol 90' (DRC-1, concentration 40): 60.9972%
% inhibition Apol 90' (DRC-1, concentration 80): 80.3159%
% inhibition apPOL 180' (DRC-1, concentration 2.5): -0.3262%
% inhibition apPOL 180' (DRC-1, concentration 5): 0.08289%
% inhibition apPOL 180' (DRC-1, concentration 10): 10.649%
% inhibition apPOL 180' (DRC-1, concentration 20): 16.9681%
% inhibition apPOL 180' (DRC-1, concentration 40): 47.3942%
% inhibition apPOL 180' (DRC-1, concentration 80): 72.1517%
% inhibition Apo pol 5' (DRC-2, concentration 2.5): 21%
% inhibition Apo pol 5' (DRC-2, concentration 5): 10%
% inhibition Apo pol 5' (DRC-2, concentration 10): 35%
% inhibition Apo pol 5' (DRC-2, concentration 20): 42%
% inhibition Apo pol 5' (DRC-2, concentration 40): 53%
% inhibition Apo pol 5' (DRC-2, concentration 80): 27%
% inhibition Apol 40' (DRC-2, concentration 2.5): 30%
% inhibition Apol 40' (DRC-2, concentration 5): 10%
% inhibition Apol 40' (DRC-2, concentration 10): 40%
% inhibition Apol 40' (DRC-2, concentration 20): 52%
% inhibition Apol 40' (DRC-2, concentration 40): 69%
% inhibition Apol 40' (DRC-2, concentration 80): 58%
% inhibition ApPOL 90' (DRC-2, concentration 2.5): 29%
% inhibition ApPOL 90' (DRC-2, concentration 5): 6.46%
% inhibition ApPOL 90' (DRC-2, concentration 10): 35%
% inhibition ApPOL 90' (DRC-2, concentration 20): 50%
% inhibition ApPOL 90' (DRC-2, concentration 40): 71%
% inhibition ApPOL 90' (DRC-2, concentration 80): 65%
% inhibition apPOL 180' (DRC-2, concentration 2.5): 20%
% inhibition apPOL 180' (DRC-2, concentration 5): -3.38%
% inhibition apPOL 180' (DRC-2, concentration 10): 23%
% inhibition apPOL 180' (DRC-2, concentration 20): 40%
% inhibition apPOL 180' (DRC-2, concentration 40): 68%
% inhibition apPOL 180' (DRC-2, concentration 80): 69%
DNA Pol (primary screen value, DNA Pol): 27

O=C(NC(C(Cl)Cl)S(=O)(=O)c1ccccc1)c1ccccc1 (stereo not shown) [KU0045239]
DNA Pol ('DNA Pol' of the 186 hits list (primary screen value)): 41
DNA Pol (DNA Pol (primary screen value)): 41
% inhibition Apo pol 10' (DRC-1, concentration 2.5): 21.4346%
% inhibition Apo pol 10' (DRC-1, concentration 5): 25.395%
% inhibition Apo pol 10' (DRC-1, concentration 10): 48.7805%
% inhibition Apo pol 10' (DRC-1, concentration 20): 67.0388%
% inhibition Apo pol 10' (DRC-1, concentration 40): 77.5747%
% inhibition Apo pol 10' (DRC-1, concentration 80): 80.3513%
% inhibition Apol 90' (DRC-1, concentration 2.5): 13.64%
% inhibition Apol 90' (DRC-1, concentration 5): 16.8163%
% inhibition Apol 90' (DRC-1, concentration 10): 39.9321%
% inhibition Apol 90' (DRC-1, concentration 20): 58.936%
% inhibition Apol 90' (DRC-1, concentration 40): 71.3995%
% inhibition Apol 90' (DRC-1, concentration 80): 76.3715%
% inhibition apPOL 180' (DRC-1, concentration 2.5): 5.305%
% inhibition apPOL 180' (DRC-1, concentration 5): 7.81%
% inhibition apPOL 180' (DRC-1, concentration 10): 29.3225%
% inhibition apPOL 180' (DRC-1, concentration 20): 48.9159%
% inhibition apPOL 180' (DRC-1, concentration 40): 64.7265%
% inhibition apPOL 180' (DRC-1, concentration 80): 71.27%
% inhibition Apo pol 5' (DRC-2, concentration 2.5): 4%
% inhibition Apo pol 5' (DRC-2, concentration 5): 18%
% inhibition Apo pol 5' (DRC-2, concentration 10): 26%
% inhibition Apo pol 5' (DRC-2, concentration 20): 59%
% inhibition Apo pol 5' (DRC-2, concentration 40): 65%
% inhibition Apo pol 5' (DRC-2, concentration 80): 46%
% inhibition Apol 40' (DRC-2, concentration 2.5): 11%
% inhibition Apol 40' (DRC-2, concentration 5): 25%
% inhibition Apol 40' (DRC-2, concentration 10): 36%
% inhibition Apol 40' (DRC-2, concentration 20): 69%
% inhibition Apol 40' (DRC-2, concentration 40): 76%
% inhibition Apol 40' (DRC-2, concentration 80): 62%
% inhibition ApPOL 90' (DRC-2, concentration 2.5): 11%
% inhibition ApPOL 90' (DRC-2, concentration 5): 24%
% inhibition ApPOL 90' (DRC-2, concentration 10): 35%
% inhibition ApPOL 90' (DRC-2, concentration 20): 68%
% inhibition ApPOL 90' (DRC-2, concentration 40): 76%
% inhibition ApPOL 90' (DRC-2, concentration 80): 64%
% inhibition apPOL 180' (DRC-2, concentration 2.5): 6.53%
% inhibition apPOL 180' (DRC-2, concentration 5): 11%
% inhibition apPOL 180' (DRC-2, concentration 10): 21%
% inhibition apPOL 180' (DRC-2, concentration 20): 58%
% inhibition apPOL 180' (DRC-2, concentration 40): 69%
% inhibition apPOL 180' (DRC-2, concentration 80): 58%

Source: PMC9090415, “Discovery of small molecule inhibitors of Plasmodium falciparum apicoplast DNA polymerase” (Journal of Enzyme Inhibition and Medicinal Chemistry, 2022)
